The source made the active and inactive calls. Cut-off read from the data, not from the text of the source, for most assays here: actives have a measured IC50 and inactives only a lower limit.
Tests used:
HEK293 [1] = test: cells; conditions: Homo sapiens
[2] = growth suppression of beta-catenin-knockout colon cells, dose response, cell-based, HCT116, human colon tumor (AID 1045); type: functional;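 note: HCT116 colon tumor cells with beta catenin knocked out; cells exposed to compound for 60 hours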
[3] = target: Nucleotide-binding oligomerization domain-containing protein 2 (Homo sapiens, UniProt Q9HC29); test: PubChem AID 2334; type: functional
Nucleotide-binding oligomerization domain-containing protein 2, sequence (Q9HC29 whole entry, the tested form may be a part): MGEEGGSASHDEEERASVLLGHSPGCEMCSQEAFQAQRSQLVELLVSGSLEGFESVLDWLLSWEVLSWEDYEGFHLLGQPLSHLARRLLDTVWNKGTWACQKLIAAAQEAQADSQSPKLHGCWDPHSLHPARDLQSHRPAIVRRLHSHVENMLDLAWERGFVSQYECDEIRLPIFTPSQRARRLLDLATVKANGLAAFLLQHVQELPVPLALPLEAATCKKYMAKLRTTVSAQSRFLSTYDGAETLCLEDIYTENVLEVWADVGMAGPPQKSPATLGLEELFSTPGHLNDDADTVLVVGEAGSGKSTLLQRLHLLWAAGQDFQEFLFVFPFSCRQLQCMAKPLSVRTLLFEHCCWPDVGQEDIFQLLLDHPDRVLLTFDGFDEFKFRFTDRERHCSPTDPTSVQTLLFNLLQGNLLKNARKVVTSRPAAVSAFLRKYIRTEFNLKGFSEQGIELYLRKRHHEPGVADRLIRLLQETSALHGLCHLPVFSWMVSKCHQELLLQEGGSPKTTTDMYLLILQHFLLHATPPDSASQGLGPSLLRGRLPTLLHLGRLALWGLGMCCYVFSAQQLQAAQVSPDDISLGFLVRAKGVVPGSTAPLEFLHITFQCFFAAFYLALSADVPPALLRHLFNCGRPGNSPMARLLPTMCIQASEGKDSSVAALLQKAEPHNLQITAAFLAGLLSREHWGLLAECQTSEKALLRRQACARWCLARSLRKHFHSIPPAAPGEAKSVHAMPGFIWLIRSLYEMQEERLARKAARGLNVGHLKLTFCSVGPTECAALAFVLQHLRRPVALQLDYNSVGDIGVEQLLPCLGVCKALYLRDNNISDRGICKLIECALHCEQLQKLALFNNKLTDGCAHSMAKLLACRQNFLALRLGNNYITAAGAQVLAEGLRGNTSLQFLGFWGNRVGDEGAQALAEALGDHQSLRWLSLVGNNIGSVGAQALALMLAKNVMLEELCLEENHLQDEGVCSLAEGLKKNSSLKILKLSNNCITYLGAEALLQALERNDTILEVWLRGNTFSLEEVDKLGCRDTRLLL

[4] = growth suppression of PTEN-null colon cells, dose response, cell-based, HCT116 PTEN knockout (AID 1047); type: functional;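 note: HCT116 colon tumor cells with PTEN knocked out; cells exposed to compound for 60 hours before readout; potency for loss of cell viability measured by luminescence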
HEK293 [5] = test: cells; type: functional, cell-based; conditions: Homo sapiens
Tumor necrosis factor = Tumor necrosis factor (Homo sapiens, UniProt P01375); test: TNFa-triggered NF-kB activation inhibitors, SAR follow-up, cell-based, revised (AID 2337); type: functional
Tumor necrosis factor, sequence (P01375 whole entry): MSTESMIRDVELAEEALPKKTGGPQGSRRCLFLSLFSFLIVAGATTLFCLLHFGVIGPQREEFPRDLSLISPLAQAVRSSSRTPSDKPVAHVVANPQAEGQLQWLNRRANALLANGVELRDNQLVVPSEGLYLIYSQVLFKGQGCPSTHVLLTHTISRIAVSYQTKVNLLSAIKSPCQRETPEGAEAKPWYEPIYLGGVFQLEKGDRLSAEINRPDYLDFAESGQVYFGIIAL

HEK293 [6] = test: NOD2 signaling inhibitors in MDP-stimulated cells, cell-based, uHTS, luminescence (AID 2001); type: functional; conditions: Homo sapiens
[7] = target: Nucleotide-binding oligomerization domain-containing protein 1 (Homo sapiens, UniProt Q9Y239); test: NOD1 signaling inhibitors, SAR follow-up, revised (AID 2333); type: functional
Nucleotide-binding oligomerization domain-containing protein 1, sequence (Q9Y239 whole entry, the tested form may be a part): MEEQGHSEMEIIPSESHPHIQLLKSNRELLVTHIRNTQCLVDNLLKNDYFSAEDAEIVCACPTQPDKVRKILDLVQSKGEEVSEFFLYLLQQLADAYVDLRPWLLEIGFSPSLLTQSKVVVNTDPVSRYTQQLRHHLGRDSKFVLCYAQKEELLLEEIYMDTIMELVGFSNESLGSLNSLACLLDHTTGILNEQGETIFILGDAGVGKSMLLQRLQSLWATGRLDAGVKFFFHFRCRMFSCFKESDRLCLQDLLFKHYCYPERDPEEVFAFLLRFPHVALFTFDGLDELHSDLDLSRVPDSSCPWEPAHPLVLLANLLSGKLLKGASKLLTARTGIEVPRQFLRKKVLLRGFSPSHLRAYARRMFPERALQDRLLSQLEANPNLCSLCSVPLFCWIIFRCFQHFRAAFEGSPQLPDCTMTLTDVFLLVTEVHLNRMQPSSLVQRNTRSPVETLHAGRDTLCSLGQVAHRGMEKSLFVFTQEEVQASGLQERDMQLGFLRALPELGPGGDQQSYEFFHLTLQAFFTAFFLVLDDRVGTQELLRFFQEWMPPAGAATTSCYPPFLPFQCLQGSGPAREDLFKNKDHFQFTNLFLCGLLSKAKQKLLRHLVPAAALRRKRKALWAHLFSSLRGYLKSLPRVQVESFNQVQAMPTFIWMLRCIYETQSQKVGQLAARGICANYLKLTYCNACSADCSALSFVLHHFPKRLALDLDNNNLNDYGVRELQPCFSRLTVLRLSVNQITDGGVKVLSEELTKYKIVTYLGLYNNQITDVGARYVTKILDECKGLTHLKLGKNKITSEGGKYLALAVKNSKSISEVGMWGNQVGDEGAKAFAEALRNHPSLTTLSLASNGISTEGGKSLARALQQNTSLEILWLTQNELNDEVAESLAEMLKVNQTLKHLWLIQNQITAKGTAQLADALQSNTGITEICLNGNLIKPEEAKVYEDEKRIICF

HEK293 [8] = test: cells; type: functional, cell-based; conditions: Homo sapiens; remark: listed apart in the source
HEK293 [9] = test: NOD1 signaling inhibitors, primary screen, cell-based, luminescence, uHTS (AID 1578); type: functional; conditions: Homo sapiens
[10] = target: G-protein coupled receptor 55 (Homo sapiens, UniProt Q9Y2T6); test: GPR55 antagonists, SAR follow-up, counter-screen for GPR35 antagonist project, imaging, image-based (AID 2397); type: functional
G-protein coupled receptor 55, sequence (Q9Y2T6 whole entry): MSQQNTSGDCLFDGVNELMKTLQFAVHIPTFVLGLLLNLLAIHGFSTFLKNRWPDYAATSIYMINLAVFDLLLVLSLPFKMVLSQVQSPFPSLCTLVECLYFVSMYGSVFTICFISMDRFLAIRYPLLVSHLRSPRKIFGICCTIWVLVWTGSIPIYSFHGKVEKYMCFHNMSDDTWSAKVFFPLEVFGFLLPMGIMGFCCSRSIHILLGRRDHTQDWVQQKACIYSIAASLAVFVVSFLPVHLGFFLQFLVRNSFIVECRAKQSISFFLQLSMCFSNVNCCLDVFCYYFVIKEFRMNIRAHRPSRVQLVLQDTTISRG

[11] = target: T1, Tyrosine-protein phosphatase non-receptor type 22 (Homo sapiens, UniProt Q9Y2R2); type: functional
T1 sequence (Q9Y2R2 whole entry): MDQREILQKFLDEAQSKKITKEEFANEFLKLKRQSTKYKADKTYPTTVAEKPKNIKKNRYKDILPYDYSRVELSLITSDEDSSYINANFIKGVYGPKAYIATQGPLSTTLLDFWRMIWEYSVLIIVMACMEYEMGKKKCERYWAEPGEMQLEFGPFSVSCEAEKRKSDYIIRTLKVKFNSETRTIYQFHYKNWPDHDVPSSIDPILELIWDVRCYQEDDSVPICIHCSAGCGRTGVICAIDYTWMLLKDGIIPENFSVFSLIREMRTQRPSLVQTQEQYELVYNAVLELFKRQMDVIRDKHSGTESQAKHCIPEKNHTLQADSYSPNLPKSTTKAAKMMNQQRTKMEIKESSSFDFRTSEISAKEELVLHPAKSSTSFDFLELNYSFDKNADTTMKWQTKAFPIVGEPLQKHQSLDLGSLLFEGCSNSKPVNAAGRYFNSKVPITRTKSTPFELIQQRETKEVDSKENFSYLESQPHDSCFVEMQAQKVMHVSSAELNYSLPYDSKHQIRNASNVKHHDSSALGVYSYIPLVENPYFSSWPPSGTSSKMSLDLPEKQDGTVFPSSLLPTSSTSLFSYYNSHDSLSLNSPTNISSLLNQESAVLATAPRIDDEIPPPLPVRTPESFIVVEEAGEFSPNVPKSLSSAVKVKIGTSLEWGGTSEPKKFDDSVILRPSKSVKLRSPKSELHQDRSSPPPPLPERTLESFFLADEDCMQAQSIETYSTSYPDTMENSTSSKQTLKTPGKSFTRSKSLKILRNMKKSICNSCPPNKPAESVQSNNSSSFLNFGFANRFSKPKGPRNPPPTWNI

[12] = target: T2, Tyrosine-protein phosphatase non-receptor type 7 (Homo sapiens, UniProt P35236); type: functional
T2 sequence (P35236 whole entry): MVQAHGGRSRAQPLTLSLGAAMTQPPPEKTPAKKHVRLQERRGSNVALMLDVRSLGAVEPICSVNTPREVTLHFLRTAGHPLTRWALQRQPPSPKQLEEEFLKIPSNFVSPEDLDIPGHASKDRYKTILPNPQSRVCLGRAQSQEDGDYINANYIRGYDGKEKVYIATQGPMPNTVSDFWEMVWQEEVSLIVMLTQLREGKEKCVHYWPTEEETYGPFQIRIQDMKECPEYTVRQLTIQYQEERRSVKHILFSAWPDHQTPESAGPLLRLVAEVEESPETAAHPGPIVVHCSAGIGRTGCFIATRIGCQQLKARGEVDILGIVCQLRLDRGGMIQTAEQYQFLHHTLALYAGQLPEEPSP

[13] = target: T1, Tyrosine-protein phosphatase non-receptor type 22; type: functional; remark: listed apart in the source
[14] = target: Lysine-specific demethylase 4C (Homo sapiens, UniProt Q9H3R0); test: GASC-1 (JMJD2C) histone demethylase inhibitors, dose response, biochemical, DELFIA europium, cherry-picked samples (AID 488835); type: functional
Lysine-specific demethylase 4C, sequence (Q9H3R0 whole entry): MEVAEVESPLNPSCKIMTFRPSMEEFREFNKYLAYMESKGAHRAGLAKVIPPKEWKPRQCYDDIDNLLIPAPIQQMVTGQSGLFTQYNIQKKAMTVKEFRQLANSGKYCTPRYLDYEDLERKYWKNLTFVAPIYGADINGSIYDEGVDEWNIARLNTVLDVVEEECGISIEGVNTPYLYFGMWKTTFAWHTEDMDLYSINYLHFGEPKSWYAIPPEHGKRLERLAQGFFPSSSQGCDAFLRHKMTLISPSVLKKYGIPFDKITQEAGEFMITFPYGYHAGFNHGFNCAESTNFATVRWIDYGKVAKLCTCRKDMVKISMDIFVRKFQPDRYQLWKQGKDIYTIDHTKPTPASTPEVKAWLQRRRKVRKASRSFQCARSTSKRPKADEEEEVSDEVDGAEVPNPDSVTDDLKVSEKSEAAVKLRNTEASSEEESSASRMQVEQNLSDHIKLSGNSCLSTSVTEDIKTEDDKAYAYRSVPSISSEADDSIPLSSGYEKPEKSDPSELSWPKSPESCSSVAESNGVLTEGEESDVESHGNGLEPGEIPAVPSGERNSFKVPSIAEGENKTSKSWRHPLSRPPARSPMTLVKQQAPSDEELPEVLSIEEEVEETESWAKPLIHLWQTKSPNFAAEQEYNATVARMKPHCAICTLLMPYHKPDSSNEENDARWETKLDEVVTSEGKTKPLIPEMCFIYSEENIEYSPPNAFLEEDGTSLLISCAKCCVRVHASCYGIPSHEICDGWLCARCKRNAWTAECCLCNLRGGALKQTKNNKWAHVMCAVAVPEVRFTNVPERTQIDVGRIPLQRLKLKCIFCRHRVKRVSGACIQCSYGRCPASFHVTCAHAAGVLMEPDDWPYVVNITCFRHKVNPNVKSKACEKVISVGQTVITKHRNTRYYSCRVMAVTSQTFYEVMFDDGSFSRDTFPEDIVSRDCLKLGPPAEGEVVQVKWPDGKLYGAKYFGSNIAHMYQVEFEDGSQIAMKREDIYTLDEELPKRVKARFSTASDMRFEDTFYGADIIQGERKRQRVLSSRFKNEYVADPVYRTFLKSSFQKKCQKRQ

Cc1cccc(-n2nc3c4c(ccc3c2O)C(=O)c2ccccc2C4=O)c1
IC50 (HEK293 [1]): > 20 µM (inactive)
EC50 [2]: 30 µM (active)
IC50 [3]: 17.8 µM (active)
EC50 [4]: 114 µM (active)
IC50 (HEK293 [5]): > 20 µM (inactive)
IC50 (Tumor necrosis factor): 16.3 µM (active)
IC50 (HEK293 [6]): > 20 µM (inactive)
IC50 [7]: 17.1 µM (active)
IC50 (HEK293 [8]): > 20 µM (inactive)
EC50 (HEK293 [9]): 8.5 µM (active)

Cc1ccccc1OCCC(=O)NCCc1ccc(S(N)(=O)=O)cc1
IC50 [10]: > 32 µM (inactive)

Cc1ccccc1Cn1cc(NC(=O)c2nn(C)cc2Cl)cn1
IC50 [11]: > 79.4 µM (inactive)
IC50 [12]: > 79.4 µM (inactive)
IC50 [13]: > 79.4 µM (inactive)

CC(C)CCN(C(=O)C1=COCCO1)c1c(N)n(Cc2ccccc2)c(=O)[nH]c1=O
AC50 [14]: 20.6 µM (active)

Reference: ChEMBL document CHEMBL1201862, “PubChem BioAssay data set” (2004)
